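Cells were grown in 96-well plates and exposed to each compound for 48 hours at five concentrations; endpoints were interpolated linearly between bracketing concentrations, or set to the highest concentration if not reached. GI50 marks 50% less growth. TGI is the concentration that stops growth completely.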
Assays:
Assay in all cases: growth of human tumour cells (NCI), 48 h
NCI-H522 lung = tested on: NCI-H522 lung
NCI-H226 lung = tested on: NCI-H226 lung
HCT-15 colon = tested on: HCT-15 colon
SK-MEL-2 melanoma = tested on: SK-MEL-2 melanoma
OVCAR-3 ovarian = tested on: OVCAR-3 ovarian
NCI/ADR-RES ovarian = tested on: NCI/ADR-RES ovarian
SF-268 CNS = tested on: SF-268 CNS
SN12C renal = tested on: SN12C renal
NCI-H23 lung = tested on: NCI-H23 lung
OVCAR-8 ovarian = tested on: OVCAR-8 ovarian
HCC-2998 colon = tested on: HCC-2998 colon
SK-OV-3 ovarian = tested on: SK-OV-3 ovarian
SF-295 CNS = tested on: SF-295 CNS
SK-MEL-28 melanoma = tested on: SK-MEL-28 melanoma
DU-145 prostate = tested on: DU-145 prostate
RPMI-8226 leukemia = tested on: RPMI-8226 leukemia
SR leukemia = tested on: SR leukemia
SNB-75 CNS = tested on: SNB-75 CNS
SF-539 CNS = tested on: SF-539 CNS
MALME-3M melanoma = tested on: MALME-3M melanoma
HT29 colon = tested on: HT29 colon
MDA-MB-435 = tested on: MDA-MB-435
ACHN renal = tested on: ACHN renal
UO-31 renal = tested on: UO-31 renal
PC-3 prostate = tested on: PC-3 prostate
U251 CNS = tested on: U251 CNS
MDA-MB-468 breast = tested on: MDA-MB-468 breast
RXF 393 renal = tested on: RXF 393 renal
SK-MEL-5 melanoma = tested on: SK-MEL-5 melanoma
M14 melanoma = tested on: M14 melanoma
KM12 colon = tested on: KM12 colon
COLO 205 colon = tested on: COLO 205 colon
HOP-92 NSCLC = tested on: HOP-92 NSCLC
HCT-116 colon = tested on: HCT-116 colon
TK-10 renal = tested on: TK-10 renal
SNB-19 CNS = tested on: SNB-19 CNS
OVCAR-4 ovarian = tested on: OVCAR-4 ovarian
UACC-257 melanoma = tested on: UACC-257 melanoma
CAKI-1 renal = tested on: CAKI-1 renal
A498 renal = tested on: A498 renal
LOX IMVI melanoma = tested on: LOX IMVI melanoma
MOLT-4 leukemia = tested on: MOLT-4 leukemia
IGROV1 ovarian = tested on: IGROV1 ovarian
HL-60(TB) leukemia = tested on: HL-60(TB) leukemia
HOP-62 NSCLC = tested on: HOP-62 NSCLC
SW-620 colon = tested on: SW-620 colon
CCRF-CEM leukemia = tested on: CCRF-CEM leukemia
MDA-MB-231 breast = tested on: MDA-MB-231 breast
A549 NSCLC = tested on: A549 NSCLC
OVCAR-5 ovarian = tested on: OVCAR-5 ovarian
EKVX NSCLC = tested on: EKVX NSCLC
NCI-H460 lung = tested on: NCI-H460 lung
786-0 renal = tested on: 786-0 renal
T-47D breast = tested on: T-47D breast
UACC-62 melanoma = tested on: UACC-62 melanoma
HS 578T breast = tested on: HS 578T breast
BT-549 breast = tested on: BT-549 breast
MCF7 breast = tested on: MCF7 breast
K-562 leukemia = tested on: K-562 leukemia

## Cc1ccc(C(=O)C[n+]2cccc3c4ccccc4ccc32)cc1
NCI-H522 lung
  GI50: 6.66 µM
  TGI: 24.6 µM
NCI-H226 lung
  GI50: 5.18 µM
  TGI: 42.9 µM
HCT-15 colon
  GI50: 28.1 µM
  TGI: > 100 µM
SK-MEL-2 melanoma
  GI50: 14.5 µM
  TGI: 52.5 µM
OVCAR-3 ovarian
  GI50: 6.1 µM
  TGI: 52.3 µM
NCI/ADR-RES ovarian
  GI50: > 100 µM
  TGI: > 100 µM
SF-268 CNS
  GI50: 17.2 µM
  TGI: > 100 µM
SN12C renal
  GI50: 12.5 µM
  TGI: > 100 µM
NCI-H23 lung
  GI50: 10.6 µM
  TGI: 49 µM
OVCAR-8 ovarian
  GI50: 6.97 µM
  TGI: > 100 µM
HCC-2998 colon
  GI50: 13.6 µM
  TGI: 28.3 µM
SK-OV-3 ovarian
  GI50: 22.1 µM
  TGI: > 100 µM
SF-295 CNS
  GI50: 7.05 µM
  TGI: 29.1 µM
SK-MEL-28 melanoma
  GI50: 14.8 µM
  TGI: 32.6 µM
DU-145 prostate
  GI50: 18.5 µM
  TGI: > 100 µM
RPMI-8226 leukemia
  GI50: 3.87 µM
  TGI: 21.9 µM
SR leukemia
  GI50: 29.7 µM
  TGI: > 100 µM
SNB-75 CNS
  GI50: 8.73 µM
  TGI: 61.9 µM
SF-539 CNS
  GI50: 16.9 µM
  TGI: 58.7 µM
MALME-3M melanoma
  GI50: 13.9 µM
  TGI: 27.4 µM
HT29 colon
  GI50: 5.6 µM
  TGI: 48.4 µM
MDA-MB-435
  GI50: 14.2 µM
  TGI: 29.8 µM
ACHN renal
  GI50: 15.9 µM
  TGI: > 100 µM
UO-31 renal
  GI50: 19.9 µM
  TGI: > 100 µM
PC-3 prostate
  GI50: 5.53 µM
  TGI: 59.4 µM
U251 CNS
  GI50: 9.32 µM
  TGI: 34.8 µM
MDA-MB-468 breast
  GI50: 1.61 µM
  TGI: 7.72 µM
RXF 393 renal
  GI50: 3.82 µM
  TGI: 21.6 µM
SK-MEL-5 melanoma
  GI50: 3.73 µM
  TGI: 14.8 µM
M14 melanoma
  GI50: 11.1 µM
  TGI: 29.2 µM
KM12 colon
  GI50: 16 µM
  TGI: 65 µM
COLO 205 colon
  GI50: 9.03 µM
  TGI: 25.5 µM
HOP-92 NSCLC
  GI50: 6.11 µM
  TGI: 40.8 µM
HCT-116 colon
  GI50: 6.64 µM
  TGI: 28.6 µM
TK-10 renal
  GI50: 26.4 µM
  TGI: > 100 µM
SNB-19 CNS
  GI50: 18.5 µM
  TGI: > 100 µM
OVCAR-4 ovarian
  GI50: 4.43 µM
  TGI: > 100 µM
UACC-257 melanoma
  GI50: 10.3 µM
  TGI: 25.7 µM
CAKI-1 renal
  GI50: 15.6 µM
  TGI: 71.1 µM
A498 renal
  GI50: 24.1 µM
  TGI: > 100 µM
LOX IMVI melanoma
  GI50: 11.2 µM
  TGI: 24.1 µM
MOLT-4 leukemia
  GI50: 13.2 µM
  TGI: 83.9 µM
IGROV1 ovarian
  GI50: 19.1 µM
  TGI: 82.5 µM
HL-60(TB) leukemia
  GI50: 3.75 µM
  TGI: 21.1 µM
HOP-62 NSCLC
  GI50: 11.8 µM
  TGI: > 100 µM
SW-620 colon
  GI50: 13.4 µM
  TGI: 87.1 µM
CCRF-CEM leukemia
  GI50: 13.1 µM
  TGI: 70 µM
MDA-MB-231 breast
  GI50: 14.4 µM
  TGI: 40.8 µM
A549 NSCLC
  GI50: 11 µM
  TGI: > 100 µM
OVCAR-5 ovarian
  GI50: 20.4 µM
  TGI: > 100 µM
EKVX NSCLC
  GI50: 7.26 µM
  TGI: > 100 µM
NCI-H460 lung
  GI50: 10.5 µM
  TGI: 25.8 µM
786-0 renal
  GI50: 18.6 µM
  TGI: 48.3 µM
T-47D breast
  GI50: 6.57 µM
  TGI: 46.2 µM
UACC-62 melanoma
  GI50: 12.6 µM
  TGI: 26.5 µM
HS 578T breast
  GI50: 15.8 µM
  TGI: 83.4 µM
BT-549 breast
  GI50: 5.68 µM
  TGI: 18.9 µM
MCF7 breast
  GI50: 5.44 µM
  TGI: 24.4 µM
K-562 leukemia
  GI50: 2.45 µM
  TGI: > 100 µM

Reference: PubChem BioAssay (NCI)
